Several values for one entry are separate records, joined by “and”; a condition that tells them apart may be missing. Equal entries are not always repeated. Inconclusive results and toxic doses are left out. How the source made its calls: active means survival T/C of 150% or more; inactive means T/C below 125% in these data.
System: BDF1 mice, B16 melanoma ip, median survival T/C
Test: NCI In Vivo Anticancer Drug Screen. Data for tumor model B16 Melanoma (intraperitoneal) in B6D2F1 (BDF1) mice
Details: endpoint: median survival time, higher = longer survival
Outline: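 Read-out: survival or tumor size, given as treated/control ratio. Controls received vehicle only; animals bore transplantable tumors.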

[1] = dose: 25.0 mg/kg/injection, schedule: Q01DX009 (ip), vehicle: saline with Tween-80
[2] = dose: 50.0 mg/kg/injection, schedule: Q01DX009 (ip), vehicle: saline with Tween-80
[3] = dose: 100.0 mg/kg/injection, schedule: Q01DX009 (ip), vehicle: saline with Tween-80
[4] = dose: 200.0 mg/kg/injection, schedule: Q01DX009 (ip), vehicle: saline with Tween-80
[5] = dose: 12.5 mg/kg/injection, schedule: Q01DX009 (ip), vehicle: saline
[6] = dose: 25.0 mg/kg/injection, schedule: Q01DX009 (ip), vehicle: saline
[7] = dose: 50.0 mg/kg/injection, schedule: Q01DX009 (ip), vehicle: saline
[8] = dose: 1.5 mg/kg/injection, schedule: Q01DX009 (ip), vehicle: saline with Tween-80
[9] = dose: 100.0 mg/kg/injection, schedule: Q01DX009 (ip), vehicle: saline
[10] = dose: 200.0 mg/kg/injection, schedule: Q01DX009 (ip), vehicle: saline
[11] = dose: 100.0 mg/kg/injection, schedule: Q04DX003 (ip), vehicle: Klucel (hydroxypropylcellulose) (HPC)
[12] = dose: 200.0 mg/kg/injection, schedule: Q04DX003 (ip), vehicle: Klucel (hydroxypropylcellulose) (HPC)

Measured: T/C

COc1cc2c(c(O)c1OC)-c1c(cc(OC)c(OC)c1OC)CC(C)C(C)C2 (stereo not drawn)
inactive: dose: 11.25 mg/kg/injection, schedule: Q01DX009 (ip), vehicle: saline + Tween-80 + alcohol 101 % of control | dose: 22.5 mg/kg/injection, schedule: Q01DX009 (ip), vehicle: saline + Tween-80 + alcohol 105 % of control | dose: 45.0 mg/kg/injection, schedule: Q01DX009 (ip), vehicle: saline + Tween-80 + alcohol 97 % of control | dose: 90.0 mg/kg/injection, schedule: Q01DX009 (ip), vehicle: saline + Tween-80 + alcohol 106 % of control

O=C1[O][Hg][c]2cccc3cccc1c23
inactive: dose: 1.65 mg/kg/injection, schedule: Q04DX003 (ip), vehicle: saline with Tween-80 106 % of control | dose: 2.5 mg/kg/injection, schedule: Q01DX009 (ip), vehicle: saline with Tween-80 88 % of control | dose: 2.5 mg/kg/injection, schedule: Q04DX003 (ip), vehicle: saline with Tween-80 100 % of control | dose: 5.0 mg/kg/injection, schedule: Q01DX009 (ip), vehicle: saline with Tween-80 86 % of control | dose: 10.0 mg/kg/injection, schedule: Q04DX003 (ip), vehicle: saline with Tween-80 123 % of control

O=C1c2cccnc2C(=O)c2c(O)ccc(O)c21
inactive: [1] 92 % of control | [2] 103 % of control | [3] 112 % of control | [4] 89 % of control

CN1CCc2cc3c(cc2C(=O)Cc2ccc4c(c2C1)OCO4)OCO3
inactive: [1] 115 % of control | dose: 25.0 mg/kg/injection, schedule: Q04DX003 (ip), vehicle: saline with Tween-80 117 % of control | [2] 112 % of control | dose: 50.0 mg/kg/injection, schedule: Q04DX003 (ip), vehicle: saline with Tween-80 114 % of control | [3] 105 % of control | dose: 100.0 mg/kg/injection, schedule: Q04DX003 (ip), vehicle: saline with Tween-80 94 % of control

C=CCC(N)Cc1ccccc1 (stereo not drawn)
inactive: dose: 3.12 mg/kg/injection, schedule: Q01DX009 (ip), vehicle: saline 105 % of control | dose: 3.12 mg/kg/injection, schedule: Q04DX003 (ip), vehicle: saline 112 % of control | dose: 6.25 mg/kg/injection, schedule: Q01DX009 (ip), vehicle: saline 105 % of control | dose: 6.25 mg/kg/injection, schedule: Q04DX003 (ip), vehicle: saline 105 % of control | [5] 111 % of control | dose: 12.5 mg/kg/injection, schedule: Q04DX003 (ip), vehicle: saline 97 % of control | [6] 100 % of control | dose: 25.0 mg/kg/injection, schedule: Q04DX003 (ip), vehicle: saline 100 % of control | [7] 110 % of control | dose: 50.0 mg/kg/injection, schedule: Q04DX003 (ip), vehicle: saline 100 % of control

CC(=O)[O][Hg][c]1cc(-c2ccc(N=Nc3c(S(=O)(=O)O)cc4cccc(N)c4c3O)cc2)ccc1N=Nc1c(S(=O)(=O)O)cc2cccc(N)c2c1O
inactive: dose: 0.75 mg/kg/injection, schedule: Q01DX009 (ip), vehicle: saline with Tween-80 95 % of control | [8] 90 % of control | dose: 1.5 mg/kg/injection, schedule: Q04DX003 (ip), vehicle: saline with Tween-80 102 % of control | dose: 3.0 mg/kg/injection, schedule: Q04DX003 (ip), vehicle: saline with Tween-80 86 % of control

CCC(=O)OCC(=O)[C@]1(O)Cc2c(O)c3c(c(O)c2[C@@H](OC2CC(N)C(O)C(C)O2)C1)C(=O)c1c(OC)cccc1C3=O (stereo partly drawn)
active: dose: 0.25 mg/kg/injection, schedule: Q01DX009 (ip), vehicle: saline 188 % of control | dose: 0.5 mg/kg/injection, schedule: Q01DX009 (ip), vehicle: saline 175 % of control | dose: 1.0 mg/kg/injection, schedule: Q01DX009 (ip), vehicle: saline 169 % of control and 195 % of control | dose: 2.0 mg/kg/injection, schedule: Q01DX009 (ip), vehicle: saline 177 % of control and 260 % of control

O=c1ncccn1[C@@H]1O[C@H](CO)[C@H](O)C1O (stereo partly drawn)
inactive: [6] 119 % of control | [7] 115 % of control
active: dose: 400.0 mg/kg/injection, schedule: Q01DX009 (ip), vehicle: saline 166 % of control

O=C(Nc1cccc(C(F)(F)F)c1)c1ccc(Cl)c(Cl)c1
inactive: dose: 50.0 mg/kg/injection, schedule: Q01DX009 (ip), vehicle: gum acacia 105 % of control | dose: 100.0 mg/kg/injection, schedule: Q01DX009 (ip), vehicle: gum acacia 119 % of control | dose: 200.0 mg/kg/injection, schedule: Q01DX009 (ip), vehicle: gum acacia 113 % of control | dose: 400.0 mg/kg/injection, schedule: Q01DX009 (ip), vehicle: gum acacia 100 % of control

CCN(CC)CCCC(C)NCCCCNC(C)CCCN(CC)CC (stereo not drawn)
inactive: dose: 4.69 mg/kg/injection, schedule: Q01DX009 (ip), vehicle: alcohol 96 % of control | dose: 6.25 mg/kg/injection, schedule: Q01DX009 (ip), vehicle: alcohol 115 % of control | dose: 9.38 mg/kg/injection, schedule: Q01DX009 (ip), vehicle: alcohol 104 % of control | dose: 11.0 mg/kg/injection, schedule: Q01DX009 (ip), vehicle: water 122 % of control | dose: 12.5 mg/kg/injection, schedule: Q01DX009 (ip), vehicle: alcohol 88 % of control | dose: 16.5 mg/kg/injection, schedule: Q01DX009 (ip), vehicle: water 94 % of control
87 % of control and 224 % of control: dose: 25.0 mg/kg/injection, schedule: Q01DX009 (ip), vehicle: water

COC1OC(CO)C(O)C(NC(=O)N(C)N=O)C1O (stereo not drawn)
inactive: [5] 105 % of control
active: [7] 150 % of control | [9] 176 % of control and 195 % of control | [10] 196 % of control and 209 % of control

Nc1nc(SCc2ccccc2)c2[nH]cnc2n1
inactive: dose: 3.13 mg/kg/injection, schedule: Q01DX009 (ip), vehicle: saline sonified 95 % of control | dose: 6.25 mg/kg/injection, schedule: Q01DX009 (ip), vehicle: saline sonified 100 % of control | dose: 12.5 mg/kg/injection, schedule: Q01DX009 (ip), vehicle: saline sonified 93 % of control | dose: 25.0 mg/kg/injection, schedule: Q01DX009 (ip), vehicle: saline sonified 97 % of control

O=C1C(=O)c2ccccc2-c2ccccc21.O=C1C(=O)c2ccccc2-c2ccccc21.[Hg]
inactive: [8] 94 % of control and 99 % of control | dose: 3.0 mg/kg/injection, schedule: Q01DX009 (ip), vehicle: saline with Tween-80 88 % of control and 90 % of control

CCN(C)CCN(C)CC
inactive: [9] 95 % of control | [10] 109 % of control

COc1cc(N)c2c(c1N)C(=O)c1ccccc1C2=O
inactive: dose: 50.0 mg/kg/injection, schedule: Q04DX003 (ip), vehicle: Klucel (hydroxypropylcellulose) (HPC) 100 % of control | [11] 103 % of control | [12] 95 % of control

O=Cc1ccc(/C=C2\C=Cc3ccccc32)cc1
inactive: [3] 97 % of control

CCCCCCCCC(=O)NCCCOC
inactive: [11] 107 % of control | [12] 101 % of control | dose: 400.0 mg/kg/injection, schedule: Q04DX003 (ip), vehicle: Klucel (hydroxypropylcellulose) (HPC) 93 % of control

O=[N+]([O-])c1ccc2nc3c(nc2c1)-c1cccc2cccc-3c12
inactive: [2] 103 % of control | [3] 100 % of control | [4] 98 % of control
